Patent US12637476B2, “Substituted carbamate macrocyclic compounds and related methods of treatment” (Alkermes, Inc., priority 2021, dated 2026)

What follows are compounds tested against T1, human orexin-2 receptor (OX2R) (Homo sapiens, UniProt O43614) (assay: Human OX2R IP1 assay). Conditions: T-Rex CHO cells stably overexpressing human OX2R, IP1 accumulation, 1 hr at 37 degrees C.
T1 construct: expressed in transfected cells; host or cells: T-Rex CHO cells, induced with doxycycline
T1 sequence (O43614 1-444): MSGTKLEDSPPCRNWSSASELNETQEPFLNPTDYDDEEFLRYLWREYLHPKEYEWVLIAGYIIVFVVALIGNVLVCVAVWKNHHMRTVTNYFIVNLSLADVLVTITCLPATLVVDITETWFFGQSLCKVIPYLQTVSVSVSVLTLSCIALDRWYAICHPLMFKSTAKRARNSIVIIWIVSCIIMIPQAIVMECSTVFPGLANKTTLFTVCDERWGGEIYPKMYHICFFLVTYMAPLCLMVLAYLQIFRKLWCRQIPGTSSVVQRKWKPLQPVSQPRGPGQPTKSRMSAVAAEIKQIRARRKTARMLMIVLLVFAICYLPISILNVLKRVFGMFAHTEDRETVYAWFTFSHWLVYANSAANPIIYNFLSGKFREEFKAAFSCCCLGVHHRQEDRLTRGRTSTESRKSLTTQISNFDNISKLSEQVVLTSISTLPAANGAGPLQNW
Assay type: cell-based
Method: T-Rex CHO cells stably overexpressing the human orexin-2 receptor (OX2R) were induced overnight with 1 μg/mL of doxycycline in a T225 flask. 24 hours post induction, cells were lifted with accutase and plated into a 384-well proxy plate at 30,000 cells/well. Cells were then treated with different test compounds in 1× stimulation buffer containing 10 mM Hepes, 1 mM CaCl2, 0.5 mM MgCl2, 4.2 mM KCl, 146 mM NaCl, 5.5 mM glucose, and 50 mM LiCl, pH 7.4, for 1 hr at 37 degrees C. Following incubation, the reaction was terminated by the addition of detection mix, which is composed of IP1-d2 and anti-IP1-cryptate diluted in lysis buffer as well as 1× stimulation buffer. The plates were allowed to incubate for 1 hour at room temperature and were then read in the EnVision® multimode plate reader, measuring inositol phosphate levels.
Cisbio IP1 is a cell-based functional assay quantifying the accumulation of inositol monophosphate (IP), a metabolite released as a result of orexin 2 receptor activation through the phospholipase C-Gq signaling pathway. This is a competitive immunoassay in which the IP1 produced by the cells upon receptor activation competes with the IP1 analog coupled to the d2 fluorophore (acceptor) for binding to an anti-IP1 monoclonal antibody labeled with Eu cryptate (donor). The measured HTRF-FRET based signal is inversely proportional to the IP1 concentration produced.
The EC50 values reported in Table 2 were obtained according to the human OX2R IP1 assay described above. Data are the mean EC50 values±S.E.M.

Structure (SMILES) | EC50
CCN1C(=O)OCC(=O)N2CCC[C@H](NS(C)(=O)=O)[C@@H]2CO[C@H]2CC[C@@H]1CC2 [Compound 1] | 100 to 1000 nM
CN1C(=O)OCC(=O)N2CCC[C@H](NS(C)(=O)=O)[C@@H]2CO[C@H]2CC[C@@H]1CC2 [Compound 2] | 100 to 1000 nM
CS(=O)(=O)N[C@H]1CCCN2C(=O)COC(=O)N(C3CC3)[C@H]3CC[C@H](CC3)OC[C@@H]12 [Compound 3] | 100 to 1000 nM
CS(=O)(=O)N[C@H]1CCCN2C(=O)COC(=O)N(CC3CC3)[C@H]3CC[C@H](CC3)OC[C@@H]12 [Compound 10] | 100 to 1000 nM
CS(=O)(=O)N[C@H]1CCCN2C(=O)COC(=O)N(CC(F)(F)F)[C@H]3CC[C@H](CC3)OC[C@@H]12 [Compound 11] | > 1000 nM
